“And” between values parts separate entries of the source, which are not always exact repeats. Equal entries are not always repeated.
Key:
[1] = Remote loading efficiency of small molecules into liposomes (PD-10 size exclusion, HPLC); type: physicochemical; settings: mean (SD), n = 2
Procedure: A solution of the small molecule (modified TLR agonist) was lyophilized in a vial equipped with a magnetic stir bar over night to form a fluffy white powder. This powder was added either formulation F1 or F2 to the wanted drug/lipid ratio. The resulting mixture was stirred at 55° C. or 41° C. for formulation F1 and F2 respectively for 3h, then allowed to cool to rt before the solutions were refrigerated and stored at 4° C.
Remote loading efficiency was determined at 1 h and 3 h by taking out 100 μL of the mixture and applying this and 900 μL buffer (25 mM HEPES, 10 vol % sucrose buffer, pH 7.4) to a PD-10 column size exclusion column. Following, 10×1 mL fractions were collected, and the small molecule compound concentrations in the loading mixture and in the liposome containing fractions were determined on analytical HPLC. Loading efficiency was calculated as percentage of molecules found in liposome containing fractions out of the applied amount. The general procedure for the small molecule remote loading is visualized in FIG. 3. The general concept of remote loading imidazoquinolines in liposomes that are dialyzed against HEPES is visualized in FIG. 4.

mTLR7 = target: T1, mTLR7 (Mus musculus, UniProt P58681); assay: NF-κB induction in HEK-Blue mTLR7 reporter cells; type: cell-based; settings: free compounds, 16 h
T1 construct: host or cells: HEK-Blue (HEK293-derived) reporter cells
T1 sequence (P58681 27-1050): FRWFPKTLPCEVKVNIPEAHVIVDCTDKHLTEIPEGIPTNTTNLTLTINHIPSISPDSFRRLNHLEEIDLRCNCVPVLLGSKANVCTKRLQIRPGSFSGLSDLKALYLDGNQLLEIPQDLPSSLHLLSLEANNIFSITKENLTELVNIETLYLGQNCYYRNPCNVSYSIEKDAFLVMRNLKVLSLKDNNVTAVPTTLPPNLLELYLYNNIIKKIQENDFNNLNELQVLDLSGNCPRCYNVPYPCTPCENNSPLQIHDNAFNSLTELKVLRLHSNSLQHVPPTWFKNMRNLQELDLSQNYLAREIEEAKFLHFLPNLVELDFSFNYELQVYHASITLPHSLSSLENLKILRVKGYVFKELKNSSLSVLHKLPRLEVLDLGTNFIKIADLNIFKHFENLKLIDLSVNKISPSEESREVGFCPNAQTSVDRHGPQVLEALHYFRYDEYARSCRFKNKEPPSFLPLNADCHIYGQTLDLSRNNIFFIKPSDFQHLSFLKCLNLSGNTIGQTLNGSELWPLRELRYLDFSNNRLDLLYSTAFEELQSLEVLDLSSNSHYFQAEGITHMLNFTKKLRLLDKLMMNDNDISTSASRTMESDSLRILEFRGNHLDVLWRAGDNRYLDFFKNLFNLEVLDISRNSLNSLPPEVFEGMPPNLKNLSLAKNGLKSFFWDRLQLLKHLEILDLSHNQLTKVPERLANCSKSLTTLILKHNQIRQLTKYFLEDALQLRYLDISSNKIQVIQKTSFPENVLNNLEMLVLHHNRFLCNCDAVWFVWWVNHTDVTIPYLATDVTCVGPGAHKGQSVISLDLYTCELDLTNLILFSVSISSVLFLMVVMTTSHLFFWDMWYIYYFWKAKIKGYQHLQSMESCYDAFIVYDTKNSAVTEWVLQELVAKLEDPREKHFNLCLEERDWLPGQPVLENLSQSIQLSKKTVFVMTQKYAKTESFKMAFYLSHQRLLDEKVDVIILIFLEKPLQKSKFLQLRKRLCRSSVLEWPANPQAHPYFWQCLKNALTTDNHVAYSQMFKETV
From the text: This example describes the general procedure used to assess the compounds' potency to induce NF-κB expression in human embryonic kidney (HEK) cells. The transcription factor NF-κB is expressed upon stimulation of TLR7/8 and is commonly used for quantifying TLR7/8 agonist potencies in reporter cell assays. Conversely, we used HEK-Blue mTLR-7 cells to evaluate the potencies of the synthesized derivatives, as previously reported (Shukla et al, J. Med. Chem. (2010), 53, 4450-4465).
HEK-Blue TLR7 assays were carried out using HEK-Blue™ mTLR7 cells (Invivogen, Toulouse, France, Cat. #hkb-mtlr7). The assays were carried out according to the protocol from Invivogen. TLR expressing cells were cultured in DMEM high glucose (4.5 g/L) supplemented with 10% (v/v) fetal bovine serum (FBS) and 1% (v/v) penicillin-streptomycin (P/S) to 50 U/ml penicillin and […] streptomycin. On the day of the study, the cells were seeded in a 96-well plate (ThermoFisher Scientific, Roskilde, Denmark) with 20 μL imidazoquinoline TLR7/8 agonist solutions per well at varying concentrations by adding 180 μL cell suspension, made by suspending cells to 0.22×10^6 cells per mL in HEK-Blue™ Detection medium (Invivogen, Cat. #hb-det2) added Blasticidin (10 μg/ml) and Zeocin™ (100 μg/ml), leading to a final concentration of 40×10^3 cells per well in triplicates. Cells were incubated with the imidazoquinoline TLR7/8 agonists, formulated in liposomes or dissolved in PBS, at 37° C. with 5% CO2 for 16 h. The response was quantified spectrophotometrically at 655 nm and was normalized to the signal from a blank sample (DMSO dilution) run in parallel.

RAW-Blue cells = assay: NF-κB induction in RAW-Blue reporter cells (RAW 264.7 macrophages, SEAP); type: cell-based; settings: for EC50: RAW-Blue, sigmoidal 4PL fitting, 24 h; for Potency in the RAW-Blue cell assay: compared with R848
From the text: This example describes the general procedure used to assess the compounds' potency to induce NF-κB expression in RAW 264.7 macrophages cells that stably express secreted embryonic alkaline phosphatase (SEAP) upon induction of NF-κB. RAW-Blue™ reporter cells are commonly used for quantifying TLR7/8 agonist potencies in reporter cell assays. Conversely, we used RAW-Blue™ cells to evaluate the potencies of the synthesized derivatives, as previously reported^1. ^1 Ryu et al, J. Am. Chem. Soc. (2014), 136, 10823-10825
RAW 264.7 assays were carried out using RAW-Blue™ cells and QUANTI-Blue™ detection solution (Invivogen, Toulouse, France, at. #raw-sp and rep-qbs respectively). The assays carried out according to the protocol from Invivogen. RAW 264.7 macrophages were cultured in DMEM high glucose (4.5 g/L) supplemented with 10% (v/v) FBS, 1% (v/v) P/S, and Normocin™ (100 μg/ml). On the day of the study, the cells were seeded in a 96-well plate (ThermoFisher Scientific, Roskilde, Denmark) with 20 μL TLR7/8 agonist solutions per well at varying concentrations by adding 180 μL cell suspension, made by suspending cells to 0.55×10^6 cells per mL in the prepared cell medium added Zeocin™ (200 μg/ml), leading to a final concentration of 100×10^3 cells per well in triplicates. Cells were incubated with the TLR7/8 agonists, diluted from 10 mM DMSO stocks in PBS, at 37° C. with 5% CO2 for 24 h for SEAP production. 50 μL SEAP containing cell supernatant from each well was added 150 μL QUANTI-Blue™ detection solution and was incubated at 37° C. for 3-6 h. The resulting response was quantified spectrophotometrically at 640 nm and was normalized to the signal from a blank sample (DMSO dilution) run in parallel.
Half maximal effective concentration (EC50) values were determined from sigmoidal 4PL fittings from the resulting dose-response curves in GraphPad Prism.

[2] = formulation F3, drug/lipid ratio 0.10, 1 h
[3] = formulation F3, drug/lipid ratio 0.10, 3 h

SMILES	Remote loading efficiency 1 h (%) [1, 2]	Remote loading efficiency 3 h (%) [1, 3]	Remote loading efficiency 1 h (%) ([1]; formulation F3, drug/lipid ratio 0.25, 1 h)	Remote loading efficiency 3 h (%) ([1]; formulation F3, drug/lipid ratio 0.25, 3 h)	Remote loading efficiency 1 h (%) ([1]; formulation F3, drug/lipid ratio 0.50, 1 h)	Remote loading efficiency 3 h (%) ([1]; formulation F3, drug/lipid ratio 0.50, 3 h)	TLR7 agonist activity (NF-κB induction) (mTLR7)	EC50 (RAW-Blue cells)	Potency in the RAW-Blue cell assay (RAW-Blue cells)
CCCCc1nc2c(N)nc3ccccc3c2n1Cc1ccc(CNC(=O)[C@@H](N)CC(N)=O)cc1 [MK135, (S)-2-amino-N-(4-((4-amino-2-butyl-1H-imidazo [4,5-c]quinolin-1-yl)methyl)benzyl)succinamide]	85.9 (4.7) %	86.4 (5.1) %	55.5 (5.7) %	65.0 (7.7) %	19.5 (0.1) %	23% and 23.3 (0.3) %	the lowest potency of all derivatives	420 nM	–
CCCCc1nc2c(N)nc3ccccc3c2n1Cc1ccc(CNC(=O)[C@@H](N)CCC(N)=O)cc1 [MK136, (S)-2-amino-N-(4-((4-amino-2-butyl-1H-imidazo[4,5-c]quinolin-1-yl)methyl)benzyl)pentanediamide]	2.0 (0.2) %	3.1 (0.4) %	–	–	–	–	the lowest potency of all derivatives	740 nM	–
CCCCc1nc2c(N)nc3ccccc3c2n1Cc1ccc(CNC(=O)[C@H](C)N)cc1 [MK137, (S)-2-amino-N-(4-((4-amino-2-butyl-1H-imidazo[4,5-c]quinolin-1-yl)methyl)benzyl)propanamide]	98.1 (5.2) %	99.1 (1.8) %	–	–	–	–	potencies that were higher or comparable to that of R848	40 nM	greater potencies than R848
CCCCc1nc2c(N)nc3ccccc3c2n1Cc1ccc(CNC(=O)CN)cc1 [MK139, 2-amino-N-(4-((4-amino-2-butyl-1H-imidazo[4,5-c]quinolin-1-yl)methyl)benzyl)acetamide]	84.7 (17.4) %	90.6 (1.6) %	–	–	–	–	potencies that were higher or comparable to that of R848	340 nM	–
CCCCc1nc2c(N)nc3ccccc3c2n1Cc1ccc(CNC(=O)[C@@H]2CCCN2)cc1 [MK140, (S)—N-(4-((4-amino-2-butyl-1H-imidazo[4,5-c]quinolin-1-yl)methyl)benzyl)pyrrolidine-2-carboxamide]	93.6 (0.1) %	98.3 (3.4) %	–	–	–	–	potencies that were higher or comparable to that of R848	50 nM	greater potencies than R848
CCCCc1nc2c(N)nc3ccccc3c2n1Cc1ccc(CNC(=O)[C@@H](N)C(C)C)cc1 [MK145, (S)-2-amino-N-(4-((4-amino-2-butyl-1H-imidazo[4,5-c]quinolin-1-yl)methyl)benzyl)-3-methylbutanamide]	97.2 (4.0) %	92.4 (3.9) %	–	–	–	–	potencies that were higher or comparable to that of R848	30 nM	the most potent compounds
CCCCc1nc2c(N)nc3ccccc3c2n1Cc1ccc(CNC(=O)[C@@H](N)[C@@H](C)CC)cc1 [MK146, (2S,3S)-2-amino-N-(4-((4-amino-2-butyl-1H-imidazo[4,5-c]quinolin-1-yl)methyl)benzyl)-3-methylpentanamide]	94.1 (2.9) %	88.4 (1.5) %	–	–	–	–	potencies that were higher or comparable to that of R848	40 nM	greater potencies than R848
